# Starred links: 1 amine or outer side, 2 acyl side, 3 side chain; linkers in the order of their positions; H or OH if unused. Positions of bridges follow the written chain, without caps; N, C: chain ends. Non-standard residues stand in square brackets, D forms with d. Residues, ends and D or L forms follow the SMILES beside them. Groups on a side chain read outwards from the residue. Chains are numbered I, II in the order given. εLys = N[C@@H](CCCCN[*:1])C(=O)[*:2]
# Legend:
# [1] = system: trypsin; settings: trypsin 10 μg/mL, peptide 100 μM in PBS pH 7.4, after 30 min of incubation; RP-HPLC peak area relative to t0
# Description: Proteolysis was measured by RP-HPLC using the following parameters, as reported.[33] Trypsin with a final concentration of 10 μg/mL was added to a solution of the peptides in PBS (pH 7.4) (100 μM). The reaction was monitored over time using reversed-phase HPLC (C18 reversed-phase Bio-Rad analytical column, 250 × 4 mm, 300 Å pore size, and 7 μm particle size). The column was eluted in 40 min using a linear gradient of 10–90% acetonitrile in water, both containing 0.1% trifluoroacetic acid (v/v), at a flow rate of 0.6 mL/min.
# [2] = system: P. aeruginosa PAO1; type: cell-based, Pseudomonas aeruginosa; settings: PAO1, 24 h
# Description: (§1) For our experiments, we used strains obtained from the American Type Culture Collection (ATCC), including P. aeruginosa PAO1, E. coli K12 parental type, S. aureus ATCC 6538P, and B. subtilis ATCC 6051. The MIC assays were performed as reported by Wiegand et al. using the broth microdilution method in 96-well round-bottom microplates.[35] The MIC was defined as the lowest concentration at which no bacterial growth was observed. Briefly, bacteria were inoculated into Mueller Hinton broth (MHB), cultured overnight at 37 °C, and transferred to a new MHB until the exponential phase of growth. The bacteria were diluted to 1 × 10^6 CFU/mL using MHB, and the peptides were prepared in double-distilled water (DDW) filtered over a 0.25 μm filter. To 50 μL of the MHB medium containing two fold serially diluted peptides with concentrations ranging from 1.56 to 50 μM were added 50 μL aliquots of the bacterial solution. The plates were incubated for 24 h at 37 °C. The positive and negative controls used were cultured without peptides (100% growth) and uninoculated MHB broth (0% growth). The bacterial growth inhibition was evaluated by measuring the absorbance at 600 nm using a microplate autoreader (SynersyMx, Biotek).
# [3] = system: S. aureus ATCC 6538P; type: cell-based, Staphylococcus aureus; settings: ATCC 6538, 24 h
# Description: as §1
# [4] = system: B. subtilis ATCC 6051; type: cell-based, Bacillus subtilis; settings: ATCC 6051, 24 h
# Description: as §1
Structure (SMILES),peptide remaining intact with trypsin [1],MIC [2],MIC [3],MIC [4]
CC(C)C[C@H](NC(=O)[C@H](CC(C)C)NC(=O)[C@H](CCCCN)NC(=O)[C@H](CC(C)C)NC(=O)[C@H](CC(C)C)NC(=O)[C@H](CCCCN)NC(=O)[C@@H](N)CCCCNC(=O)[C@H](CC(C)C)NC(=O)[C@H](CC(C)C)NC(=O)[C@H](CCCCN)NC(=O)[C@H](CCCCN)NC(=O)[C@H](CC(C)C)NC(=O)[C@H](CC(C)C)NC(=O)[C@H](CCCCN)NC(=O)[C@@H](N)CC(C)C)C(N)=O [Amp1EP9] (H-LKLLKKLL[εLys]KLLKLL-NH2),40%,3.12 µM,6.25 µM,3.12 µM
CC(C)C[C@H](NC(=O)[C@H](CC(C)C)NC(=O)[C@H](CCCCN)NC(=O)[C@H](CC(C)C)NC(=O)[C@H](CC(C)C)NC(=O)[C@H](CCCCN)NC(=O)[C@H](CCCCN)NC(=O)[C@H](CC(C)C)NC(=O)[C@H](CC(C)C)NC(=O)[C@H](CCCCN)NC(=O)[C@H](CCCCN)NC(=O)[C@H](CC(C)C)NC(=O)[C@H](CC(C)C)NC(=O)[C@@H](N)CCCCNC(=O)[C@@H](N)CC(C)C)C(N)=O [Amp1EP2] (H-K(Leu)LLKKLLKKLLKLL-NH2),–,1.56 µM,1.56 µM,1.56 µM
CC(C)C[C@H](NC(=O)[C@H](CC(C)C)NC(=O)[C@@H](N)CCCCNC(=O)[C@H](CC(C)C)NC(=O)[C@H](CC(C)C)NC(=O)[C@H](CCCCN)NC(=O)[C@H](CCCCN)NC(=O)[C@H](CC(C)C)NC(=O)[C@H](CC(C)C)NC(=O)[C@H](CCCCN)NC(=O)[C@H](CCCCN)NC(=O)[C@H](CC(C)C)NC(=O)[C@H](CC(C)C)NC(=O)[C@H](CCCCN)NC(=O)[C@@H](N)CC(C)C)C(N)=O [Amp1EP13] (H-LKLLKKLLKKLL[εLys]LL-NH2),–,1.56 µM,1.56 µM,1.56 µM
"CC(C)C[C@H](NC(=O)[C@H](CC(C)C)NC(=O)[C@H](CCCCN)NC(=O)[C@H](CC(C)C)NC(=O)[C@H](CC(C)C)NC(=O)[C@H](CCCCN)NC(=O)[C@H](CCCCN)NC(=O)[C@H](CC(C)C)NC(=O)[C@H](CC(C)C)NC(=O)[C@H](CCCCN)NC(=O)[C@H](CCCCN)NC(=O)[C@H](CC(C)C)NC(=O)[C@H](CC(C)C)NC(=O)[C@H](CCCCN)NC(=O)[C@@H](N)CC(C)C)C(N)=O [Amp1L, reference compound] (H-LKLLKKLLKKLLKLL-NH2)",neither the parental peptide Amp1L nor any of the other modified peptides were detected,12.5 µM,12.5 µM,12.5 µM
CC(C)C[C@H](NC(=O)[C@H](CC(C)C)NC(=O)[C@H](CCCCN)NC(=O)[C@H](CC(C)C)NC(=O)[C@H](CC(C)C)NC(=O)[C@H](CCCCN)NC(=O)[C@H](CCCCN)NC(=O)[C@H](CC(C)C)NC(=O)[C@H](CC(C)C)NC(=O)[C@@H](N)CCCCNC(=O)[C@H](CCCCN)NC(=O)[C@H](CC(C)C)NC(=O)[C@H](CC(C)C)NC(=O)[C@H](CCCCN)NC(=O)[C@@H](N)CC(C)C)C(N)=O [Amp1EP6] (I: H-KLLKKLLKLL-NH2 / II: H-LKLLK; amide I:1-II:C),–,1.56 µM,1.56 µM,1.56 µM
CC(C)C[C@H](NC(=O)[C@H](CC(C)C)NC(=O)[C@H](CCCCN)NC(=O)[C@H](CC(C)C)NC(=O)[C@H](CC(C)C)NC(=O)[C@H](CCCCN)NC(=O)[C@H](CCCCN)NC(=O)[C@H](CC(C)C)NC(=O)[C@H](CC(C)C)NC(=O)[C@H](CCCCN)NC(=O)[C@@H](N)CCCCNC(=O)[C@H](CC(C)C)NC(=O)[C@H](CC(C)C)NC(=O)[C@H](CCCCN)NC(=O)[C@@H](N)CC(C)C)C(N)=O [Amp1EP5] (H-K([Leu-Leu-Lys-Leu])KLLKKLLKLL-NH2),–,3.12 µM,3.12 µM,1.56 µM
CC(C)C[C@H](NC(=O)[C@H](CC(C)C)NC(=O)[C@H](CCCCN)NC(=O)[C@H](CC(C)C)NC(=O)[C@H](CC(C)C)NC(=O)[C@@H](N)CCCCNC(=O)[C@H](CCCCN)NC(=O)[C@H](CC(C)C)NC(=O)[C@H](CC(C)C)NC(=O)[C@H](CCCCN)NC(=O)[C@H](CCCCN)NC(=O)[C@H](CC(C)C)NC(=O)[C@H](CC(C)C)NC(=O)[C@H](CCCCN)NC(=O)[C@@H](N)CC(C)C)C(N)=O [Amp1EP10] (H-LKLLKKLLK[εLys]LLKLL-NH2),–,3.12 µM,3.12 µM,3.12 µM

# Reference: article PMC8958506, “Site-Specific Isopeptide Bond Formation: A Powerful Tool for the Generation of Potent and Nontoxic Antimicrobial Peptides” (Journal of Medicinal Chemistry, 2022)
